Laboratory results taken from patent US20070043118A1, “Method of treating a subject suffering from degenerative disc disease using a nitric oxide synthase inhibitor” (Discogen, LLC, priority 2005, published 2007).

Assays:
[1] = test system: patients with chronic intractable lower back pain and positive discography; assay: Biochemical injection treatment in human subjects (intradiscal injection; disability questionnaire and visual analogue pain scale); assay type: in vivo; settings: intradiscal injection of 1 to 2 cc disc solution per involved disc
Text: Thirty patients with chronic intractable lower back pain and positive discography would participate in the study. These would be adult patients with chronic lower back pain who have been unresponsive or responded poorly to multiple previous methods of treatment, including physical therapy, multiple analgesics, injection therapy, laminectomies, fusions and intradiscal electrothermal annuloplasty (IDET) procedures. These patients would have positive discography at one or more lumbar levels and concordant pain provocation combined with morphologic disc abnormalities.
Using sterile techniques and United States Pharmacopeia-grade pharmaceuticals solutions containing the NOS inhibitors are prepared, specifically, one solution is prepared for each of GED, L-NAME, and L-NMMA. The “GED disc solution” consists of 0.3 mg/kg to 10 mg/kg GED by subject weight; 1.0 to 100 micromolar by concentration. The “L-NAME disc solution” consists of 1.0 mg/kg L-NAME by subject weight; 5.0 to 100 micromolar by concentration. The “L-NMMA disc solution” consists of 1.0 mg/kg L0NMA by subject weight; 5.0 to 100 micromolar by concentration. These concentrations are derived based on solubility and tolerance characteristics of the constituents. These are mixed with 33% nonionic contrast and 33% of 50% dextrose at the time of injection. A total of 1 to 2 cc of each solution is injected into each involved disc. All solutions are tested on separate patients. Injection promptly terminates if there is any leakage of contrast into the epidural space. Zygapophyseal joint injections are performed after fluroscopic confirmation of correct needle placement using intra-articular contrast and are performed at the same levels as the disc injections.
To avoid patient discomfort, the first series of injections are performed at the time of diagnostic discography. An intradiscal injection of 1 to 2 cc is used at each involved disc level. The levels are determined by discography. This is combined with injection of the zygapophyseal joints at the painful disc level(s) with the modified solution mixture as described above. […]

[2] = test system: disc tissue obtained from human subjects; settings: in vitro; cited from earlier work

Structure (SMILES): N=C(N)NCCSSCCNC(=N)N [GED, guanidinoethyldisulfide]
- treatment outcome: pain and disability before and after treatment (disability questionnaire 0-24, visual analogue pain scale 0-10) [1]: effective in treating the patients and providing symptomatic relief

Structure (SMILES): COC(=O)[C@@H](N)CCCNC(=N)N[N+](=O)[O-] [L-NAME, nitro-L-arginine methyl ester]
- treatment outcome: pain and disability before and after treatment (disability questionnaire 0-24, visual analogue pain scale 0-10) [1]: effective in treating the patients and providing symptomatic relief

Structure (SMILES): [H]/N=C(\NC)NCCC[C@H](N)C(=O)O [L-NMMA, N-monomethyl-L-arginine]
- treatment outcome: pain and disability before and after treatment (disability questionnaire 0-24, visual analogue pain scale 0-10) [1]: effective in treating the patients and providing symptomatic relief
- level of NO present in disc tissue [2]: reduce the level of NO present
